Laboratory results reported in patent US5902794A (priority 1997, dated 1999).
“Also recorded” adds a separate entry of the source. Like-named read-outs stand apart in the source and are kept apart here.

What was measured:
[1] = tested on: R^I and R^II cAMP receptor proteins in breast (MDA-MB-231) and colon (LS-174T) cancer cells; assay: R^I and R^II cAMP receptor protein levels in breast and colon cancer lines (FIG. 6); assay type: cell-based, human; details: DBcAMP 1 mM
Procedure: (§1) M is marker proteins of known molecular weight.
(§2) The incubations were carried out at 23° C. for 60 minutes in 96-well immunoplates. The reaction mixtures were then irradiated for 30 seconds at 254 nm, placing a Mineralite UVS-11 hand lamp directly onto the plate. The samples were mixed with 25 microliters of 3× sample buffer (3% SDS, 15% beta-mercaptoethanol, 30 mM Tris, 30% glycerol, 1% bromophenol blue saturated solution), boiled for 3 minutes, and centrifuged at 700×g for five minutes. The samples containing 50-100 micrograms of protein were subjected to 0.05% SDS-12% PAGE. The gels were fixed, dried, and exposed to X-ray films overnight. The protein concentrations were determined by the method of Lowry et al., (J. Biol. Chem. 193: 265-275, 1951) with bovine serum albumin as standard.

c-myc protein = c-myc protein level, Western blotting (FIG. 9B); assay type: cell-based, human; details: 1 mmol/L, three days
Procedure: The cells were grown in suspension culture in RPMI 1640 medium supplemented with 10% fetal bovine serum, penicillin (50 U/ml), streptomycin ([…]), 10 mmol/L HEPES buffer, and extra glutamine. […] Surface antigen analysis of HL-60 cells was performed by flow cytometry using a panel of monoclonal antibodies reactive with either myeloid cells or monocytic cells. Terminal deoxynucleotidyl transferase (TdT) was assayed by an immunoperoxidase method using a TdT fluorescence kit. Western blotting of c-myc protein was performed using c-myc antibody 15206D11 (Scripps Clinic and Research Foundation, LaJolla, Calif.).
(§3) M marker proteins of known molecular weight. […] The resulting supernatants were used as cell lysates. […] ND=nondetectable.

Molt-4 = assay: growth inhibition of Molt-4; assay type: cell-based, human
[2] = tested on: R^I cAMP receptor protein (MDA-MB-231); assay: photoaffinity labelling of R^I cAMP receptor protein, MDA-MB-231; assay type: cell-based, human; details: 1 mM, 3 days; control 1.0
Procedure: as §1, §2
(§4) The levels of the receptor proteins are expressed relative to the R^I level in the untreated control cells of MDA-MB-231 and LS-174T, which are each set equal to 1.0 O.D.; the scale was expanded to differentiate the lower intensity bands.

[3] = tested on: R^II cAMP receptor protein (MDA-MB-231); assay: photoaffinity labelling of R^II cAMP receptor protein, MDA-MB-231; assay type: cell-based, human; details: 1 mM, 3 days; relative to control R^I
Procedure: as §1, §2, §4

MDA-MB-231 = assay: growth of MDA-MB-231 cells; assay type: cell-based; details: Homo sapiens, MDA-MB-231, 72 h; 1 mM, 3 days
Procedure: as §1
(§5) All breast cancer cell lines were grown in IMEM supplemented with 10% fetal bovine serum, 20 mM HEPES, penicillin-streptomycin, and extra glutamine. Colon carcinoma cell lines were grown in EMEM supplemented with 10% FBS, EMEM, NEAA, HEPES 20 mM, extra glutamine, and penicillin-streptomycin. The cells were grown at 37° C. in humidified incubators in an atmosphere of 5% CO2.
(§6) For cell growth experiments, 2-3×10^5 cells/60 mm dish were seeded, and 24 hours later (Day 0), the medium was removed, and fresh medium and the additives were added then and every 48 hours thereafter The compounds of the present invention were added using 100× concentrated stock solutions. At desired times, cell counts in duplicate were performed on a Coulter counter after harvesting the cells with gentle trypsinization.

[4] = tested on: transplantable DMBA-1 and MNA-2 rat mammary carcinomas; assay: short-term assays with transplantable rat mammary carcinomas; assay type: in vivo; details: DB-cAMP pellet
LS-174T = assay: growth of LS-174T cells; assay type: cell-based; details: Homo sapiens, LS174T, 72 h; 1 mM, 3 days
Procedure: as §1, §5, §6

[5] = tested on: human oat cell lung carcinoma cells; details: in vitro; cited from earlier work
[6] = tested on: hormone-dependent mammary tumors / DMBA-induced mammary carcinomas; details: cited from earlier work
[7] = tested on: R^I cAMP receptor protein (Molt-4); assay: R^I cAMP receptor protein in Molt-4 leukemic cells; assay type: cell-based, human; details: 1 mmol/L, three days
Excerpt: as §3

[8] = tested on: spindle cell sarcoma with multiple metastasis; details: cited from earlier work
DMBA-1 = assay: growth of transplantable DMBA-1 rat mammary carcinoma; assay type: in vivo; details: pellet with 10 mg cAMP analogue, day 7
Procedure: DMBA-1, a variant of primary hormonedependent DMBA tumor,
hormoneindependent and transplantable.
8Cl-cAMP and DBcAMP were given as a 20mg pellet consisting of 10 mg of […]

[9] = tested on: R^II cAMP receptor protein (LS-174T); assay: photoaffinity labelling of R^II cAMP receptor protein, LS-174T; assay type: cell-based, human; details: 1 mM, 3 days; relative to control R^I
Procedure: as §1, §2, §4

[10] = tested on: breast (MCF-7) and (LS-174T) colon cancer cell lines; assay: growth inhibition of breast (MCF-7) and colon (LS-174T) cancer cell lines; assay type: cell-based, human; details: 50 micromolar
[11] = tested on: R^I cAMP receptor protein (LS-174T); assay: photoaffinity labelling of R^I cAMP receptor protein, LS-174T; assay type: cell-based, human; details: 1 mM, 3 days; control 1.0
Procedure: as §1, §2, §4

[12] = tested on: hormone-dependent breast cancer lines; details: millimolar concentrations; previously reported; cited from earlier work
[13] = tested on: cultured human fibroblasts; details: cited from earlier work
[14] = tested on: DMBA-induced mammary carcinomas; assay: in vivo growth of DMBA-induced mammary carcinomas in rats; parameters: species or system rat; details: DBcAMP treatment
Procedure: […] |DMBA-induced mammary carcinomas in rats […] | 10 mg. cholesterol), was implanted on day 0 and day 14.

neuroblastoma cells = details: conflicting studies; cited from earlier work
[15] = tested on: p21 ras protein (MCF-7 cells); assay: Western blotting of p21 ras protein in MCF-7 cells; assay type: cell-based, human; details: 500 microM
Procedure: Western blotting of p21 protein was performed as described below. […] V is cell lysate from Ha-MuSV-transformed NIH3T3 clone 13-3B-4. M, marker proteins of known molecular weight.
Cellular proteins present in cell extracts were separated by 12% SDS-PAGE and transferred to nitrocellulose sheets in transfer buffer (25 mM Tris, 192 mM glycine, 20% methanol, pH 7.4). Nitrocellulose sheets were washed and first incubated with 3% bovine serum albumin in NTE-NP40 (50 mM Tris-HCl, pH 7.5, 150 mM NaCl, 2 mM EDTA, 0.1% Nonidet P-40) for three hours at 37° C. and then sequentially incubated with medium containing p21 monoclonal antiserum Y13-259 directed against the Ha-MuSV-encoded p21 for sixteen hours at 4° C., rabbit anti-rat IgG for 2.5 hours in an ice-water bath, and 5×10^5 cpm/ml ^125 I-protein A for one hour in an ice-water bath. The nitrocellulose sheets were air-dried and exposed to Kodak XAR film for 12-36 hours at -20° C. Comparison of the resulting autoradiograms with others in which normal rat serum was substituted for p21 monoclonal antibody permitted identification of p21. To provide a reference p21, cell lysates were prepared from NIH 3T3 clone 13-3B-4 that had been transfected with Ha-MuSV DNA.
The levels of p21 protein are expressed relative to the p21 level in the untreated control cells, which is set equal to 1.0 O.D.

For CCCC(=O)Nc1ncnc2c1ncn2[C@@H]1O[C@@H]2COP(=O)(O)O[C@H]2[C@H]1OC(=O)CCC [DBcAMP, N^6,O^2' -dibutyryl-cAMP], the “R^I and R^II receptor levels, in words” value [1] was “remained unchanged; also recorded: did not appreciably affect the R^I or R^II receptor levels”, the “c-myc protein level, in words” value (c-myc protein) was “did not affect the c-myc protein level” and the “50% growth inhibition, in words” value (Molt-4) was 50% growth inhibition could not be obtained. For the same molecule, the “R^I relative level” value [2] was 1.0 ± 0.1, the “R^II relative level” value [3] was 0.07 ± 0.01 and the activity at 1000 µM (MDA-MB-231) was 100%. The sensitivity of tumors [4] was “completely resistant”, the activity at 1000 µM (LS-174T) was 85% and the differentiation [5] was “differentiated into neurone-like cells”. The “cAMP binding and cAMP-dependent protein kinase activity” value ([6]; cytosol and nuclei, during growth arrest) was “increase”, the estrogen binding ([6]; during growth arrest) was “estrogen binding decreases” and the “translated p21 protein” value ([6]; preceding regression) was “sharp reduction”. For the same molecule, the tumor regression ([6]; rat, in vivo) was “regression of hormone-dependent mammary tumors”, the “R^I receptor protein, in words” value [7] was “remained without appreciable change” and the tumor size ([8]; 3-6 mg/kg i.v. daily over five hours, days 1-9 and 47-56) was “plateaued and even decreased during both infusion periods”. The histology of tumors ([8]; biopsies days 2, 14, 60) was “evidence of differentiation during the DBcAMP infusion”, the “Change in mean tumor volume” value (DMBA-1) was 2.60 cm^3 and the “Change in mean tumor volume (%)” value (DMBA-1; none = 100) was 99%. The “R^II relative level” value [9] was 0.15 ± 0.02, the “growth inhibition, in words” value [10] was “no growth inhibition” and the “R^I relative level” value [11] was 0.80 ± 0.10. The “growth inhibition, hormone-dependent breast cancer lines” value [12] was “growth inhibition only in the hormone-dependent breast cancer lines”, the DNA synthesis ([13]; added during first eight hours after serum addition) was “subsequent DNA synthesis was not delayed” and the DNA synthesis ([13]; added more than eight hours after serum addition) was “inhibitory”. For the same molecule, the “tumor growth, in words” value [14] was “only arrests this tumor growth without producing regression”, the tumorigenicity (neuroblastoma cells) was “reported to be decreased; also recorded: unaltered” and the “p21 level, in words” value [15] was “slight reduction in p21 level”.
